Experimental data taken from ChEMBL document CHEMBL5331130, “Analysis of Structure-Activity Relationships of Novel Inhibitors of the Macrophage Infectivity Potentiator (Mip) Proteins of Neisseria meningitidis, Neisseria gonorrhoeae, and Burkholderia pseudomallei” (J Med Chem, 2023).
Calls of active or inactive are those of the source. The rule behind the calls is not given here.

What was measured:
[1] = Binding affinity to Burkholderia pseudomallei Mip measured after 1 hr by fluorescence polarization assay
[2] = test system: Burkholderia pseudomallei; assay: Inhibition of Burkholderia pseudomallei Mip PPIase activity assessed as remaining activity using Suc-ALPF-pNA substrate measured at 400 nM by protease coupled assay relative to control
Neisseria meningitidis [3] = assay: Inhibition of Neisseria meningitidis Mip PPIase activity assessed as remaining activity using Suc-ALPF-pNA substrate measured at 400 nM by protease coupled assay relative to control
Neisseria meningitidis [4] = assay: Inhibition of Neisseria meningitidis Mip NEIS0004 assessed as remaining activity using Suc-ALPF-pNA substrate measured at 400 nM by protease coupled assay relative to control
[5] = test system: Burkholderia pseudomallei; assay: Antimicrobial activity against Burkholderia pseudomallei K96243 infected in mouse RAW264.7 cells assessed as reduction in bacteria-induced cytotoxicity at 50 uM after 24 hrs by lactate dehydrogenase release assay relative to control; format: functional; design: scale not given: the % may be the effect or the level left
Neisseria meningitidis [6] = assay: Antimicrobial activity against Neisseria meningitidis infected in mouse RAW264.7 cells assessed as reduction in bacteria-induced cytotoxicity at 50 uM after 24 hrs by lactate dehydrogenase release assay relative to control; format: functional; design: scale not given: the % may be the effect or the level left
Neisseria gonorrhoeae = assay: Antimicrobial activity against Neisseria gonorrhoeae infected in mouse RAW264.7 cells assessed as reduction in bacteria-induced cytotoxicity at 50 uM after 24 hrs by lactate dehydrogenase release assay relative to control; format: functional; design: scale not given: the % may be the effect or the level left

Row | Compound | Ki ([1]; read-out: Ki) | Activity [2] | Activity (Neisseria meningitidis [3]) | Activity (Neisseria meningitidis [4]) | Activity [5] | Activity (Neisseria meningitidis [6]) | Activity (Neisseria gonorrhoeae) | Ki [1]
1 | O=C(NCc1cccnc1)[C@H](CCc1ccccc1)NC(=O)[C@@H]1CCCCN1S(=O)(=O)Cc1ccccc1 | 0.0105 µM | 17.6% | 44.8% | 12.9% | 75.4% | 34.1% | 71.5% | 
2 | CC(C)C[C@H](NC(=O)[C@@H]1CCCCN1S(=O)(=O)Cc1ccc(F)cc1)C(=O)NCc1cccnc1 | 0.0456 µM | 5.8% | 23.6% | 4.2% | 46.8% | 56.2% | 61.7% | 
3 | O=C(NCc1cccnc1)[C@@H](CCc1ccccc1)COC(=O)[C@@H]1CCCCN1S(=O)(=O)Cc1ccccc1 | 0.0153 µM | 14.8% | 54% | 11.1% | 70.6% | 16% | 19.8% | 
4 | O=C(NCc1cccnc1)[C@@H](Cc1ccccc1)OC(=O)[C@@H]1CCCCN1S(=O)(=O)c1ccccc1 | 41.1 µM | 151% | 51.1% | 106% | 65.9% | 26% | 73.2% | 
5 | O=C(NCc1cccnc1)[C@@H](NC(=O)[C@@H]1CCCCN1S(=O)(=O)Cc1ccccc1)c1ccc(F)cc1 | 0.0732 µM | 11.3% | 63.5% | 27.2% | 78.5% | 22.6% | 28% | 
6 | C#CCOc1ccc(C[C@H](NC(=O)[C@@H]2CCCCN2S(=O)(=O)Cc2ccc(F)cc2)C(=O)NCc2cccnc2)cc1 | 0.0343 µM | 4.4% | 12.3% | 4.9% | 55.4% | 45.7% | 35.2% | 
7 | O=C(NCc1cccnc1)C(CCc1ccccc1)COC(=O)[C@H]1CCCCN1S(=O)(=O)Cc1ccccc1 (mixture of isomers) |  | 140% | 93.7% | 119% | 95.7% | 21.2% |  | Not Active
8 | O=C(NCc1cccnc1)C(CCc1cccnc1)OC(=O)[C@@H]1CCCCN1S(=O)(=O)c1ccccc1 (mixture of isomers) | 4.16 µM | 32.6% | 82% | 32.8% | 35.6% | 84.4% | 52% | 
9 | CC(C)[C@H](OC(=O)C1CCCCN1S(=O)(=O)Cc1ccccc1)C(=O)NCc1cccnc1 (mixture of isomers) | 1.08 µM | 13.9% | 25.2% | 10.9% | 96.8% | 52.5% | 65.1% | 
10 | O=C(NCc1cccnc1)[C@H](Cc1ccccc1)OC(=O)[C@@H]1CCCCN1S(=O)(=O)c1ccccc1 | 0.122 µM | 7% | 10% | 6.7% | 72.5% | 41.5% | 64.6% | 
11 | O=C(NCc1cccnc1)[C@H](Cc1ccccc1)NC(=O)[C@@H]1CCCCN1S(=O)(=O)Cc1ccccc1 | 0.0347 µM | 23.7% | 27.3% | 8.5% | 63.4% | 25% | 40.9% | 
12 | O=C(NCc1cccnc1)[C@@H](Cc1ccccc1)NC(=O)[C@@H]1CCCCN1S(=O)(=O)Cc1ccccc1 | 0.626 µM | 21.5% | 87.9% | 45.4% | 30.4% | 60.8% | 70.6% | 
13 | O=C(NCc1cccnc1)[C@@H](CCc1ccccc1)NC(=O)[C@@H]1CCCCN1S(=O)(=O)Cc1ccccc1 | 0.32 µM | 23.4% | 83.7% | 39.9% | 88.7% | 69.9% | 41.9% | 
14 | O=C(NCc1cccnc1)[C@H](Cc1ccccc1)OC(=O)[C@H]1CCCCN1S(=O)(=O)c1ccccc1 | 42.4 µM | 147% | 27.2% | 122% | 82.7% | 35.2% | 68.4% | 
15 | COCCOc1cc(OCCOC)cc(C(=O)NCCOC(=O)[C@@H]2CCCCN2S(=O)(=O)Cc2ccccc2)c1 | 1.06 µM | 52.3% | 85% | 88.9% | 71% | 19.6% | 21.5% | 
16 | O=C(NCc1cccnc1)[C@H](CCc1ccccc1)COC(=O)[C@@H]1CCCCN1S(=O)(=O)Cc1ccccc1 | 3.38 µM | 101% | 83.5% | 70% | 97.6% | 67.7% | 53.6% | 
17 | O=C(N[C@@H](Cc1ccccc1)C(=O)NCc1ccc[n+]([O-])c1)C1CCCCN1S(=O)(=O)Cc1ccccc1 (mixture of isomers) | 4.45 µM | 51.9% | 66.7% | 45.5% | 46.2% | 76% | 45.4% | 
18 | CC[C@H](C)[C@H](OC(=O)C1CCCCN1S(=O)(=O)Cc1ccccc1)C(=O)NCc1cccnc1 (mixture of isomers) | 3.13 µM | 16.8% | 73.3% | 9.4% | 94.3% | 58% | 35.4% | 
19 | O=C(O[C@H](Cc1ccccc1)C(=O)NCc1cccnc1)[C@H]1CCCCN1S(=O)(=O)c1ccccc1 |  | 155% | 51.3% | 108% | 74.3% | 21% | 58.6% | Not Active
20 | O=C(NCc1ccc[n+]([O-])c1)[C@H](Cc1ccc(F)cc1)NC(=O)[C@@H]1CCCCN1S(=O)(=O)Cc1ccc(F)cc1 | 1.31 µM | 40.9% | 49.4% | 24% | 51.7% | 52.8% | 44.2% | 
21 | C=CCOC(=O)[C@H](Cc1ccc(F)cc1)NC(=O)[C@@H]1CCCCN1S(=O)(=O)Cc1ccc(F)cc1 |  | inactive | inactive | inactive |  |  |  | Not Active
22 | CC(C)C[C@H](OC(=O)C1CCCCN1S(=O)(=O)Cc1ccccc1)C(=O)NCc1cccnc1 (mixture of isomers) | 0.0158 µM | 17.4% | 22.1% | 3.4% | 93.2% | 36.9% |  | 
23 | O=C(NCc1cccnc1)[C@H](Cc1ccc(F)cc1)NC(=O)[C@@H]1CCCCN1S(=O)(=O)Cc1ccc(F)cc1 | 0.0188 µM | 12.5% | 11.5% | 37.2% | 68% | 47.9% | 50.8% | 
24 | CC(C)C[C@H](OC(=O)[C@@H]1CCCCN1S(=O)(=O)Cc1ccccc1)C(=O)NCc1cccnc1 | 0.0605 µM | 4.8% | 35.6% | 3.8% | 87.8% | 13% | 19.1% | 
25 | O=C(NCc1cccnc1)C(CCc1ccccc1)COC(=O)[C@@H]1CCCCN1S(=O)(=O)Cc1ccccc1 (mixture of isomers) | 0.207 µM | 28.7% | 47% | 8.4% | 93.4% | 16.4% | 63.5% | 
26 | O=C(NCCOC(=O)[C@@H]1CCCCN1S(=O)(=O)Cc1ccccc1)c1cccnc1 | 3.96 µM | 50.3% | 52.2% | 61.9% | 68.9% | 41.1% | 27.1% | 
27 | O=C(O[C@@H](Cc1ccccc1)C(=O)NCc1cccnc1)C1CCCCN1S(=O)(=O)Cc1ccccc1 (mixture of isomers) | 0.0488 µM | 15.9% | 14% | 6.9% | 68.5% | 38.4% | 65.1% | 
28 | CC(C)C[C@@H](OC(=O)[C@@H]1CCCCN1S(=O)(=O)Cc1ccccc1)C(=O)NCc1cccnc1 | 2.52 µM | inactive | inactive | inactive |  |  |  | 
29 | O=C(NCc1cccnc1)[C@@H](NC(=O)[C@@H]1CCCCN1S(=O)(=O)Cc1ccc(F)cc1)c1ccc(F)cc1 | 0.017 µM | 13.5% | 43.3% | 30.6% | 46.7% | 51.4% | 31.4% | 
30 | CC(C)C[C@H](NC(=O)[C@@H]1CCCCN1S(=O)(=O)Cc1ccc(F)cc1)C(=O)NCc1ccc[n+]([O-])c1 | 0.148 µM | 21% | 44.4% | 23.8% | 61.5% | 71.3% | 56.4% | 
